Measurements from PubChem BioAssay AID1259407 (Chemical Carcinogenesis Research Information System (CCRIS), 2018).
Active and inactive are the calls of the source. The rule behind the calls is not given here.

Test system: CCRIS mutagenicity, Ames/micronucleus/aberration tests
Assay: CCRIS mutagenicity studies
[1] = Test System: AMES SALMONELLA TYPHIMURIUM, Strain/Indicator: TA97, Metabolic Activation: HAMSTER, LIVER, S-9, AROCLOR 1254 (10%), Method: PREINCUBATION
[2] = Test System: AMES SALMONELLA TYPHIMURIUM, Strain/Indicator: TA97, Metabolic Activation: HAMSTER, LIVER, S-9, AROCLOR 1254 (30%), Method: PREINCUBATION
[3] = Test System: AMES SALMONELLA TYPHIMURIUM, Strain/Indicator: TA97, Metabolic Activation: NONE, Method: PREINCUBATION
[4] = Test System: AMES SALMONELLA TYPHIMURIUM, Strain/Indicator: TA97, Metabolic Activation: RAT, LIVER, S-9, AROCLOR 1254 (10%), Method: PREINCUBATION
[5] = Test System: AMES SALMONELLA TYPHIMURIUM, Strain/Indicator: TA97, Metabolic Activation: RAT, LIVER, S-9, AROCLOR 1254 (30%), Method: PREINCUBATION
[6] = Test System: AMES SALMONELLA TYPHIMURIUM, Strain/Indicator: TA98, Metabolic Activation: HAMSTER, LIVER, S-9, AROCLOR 1254 (10%), Method: PREINCUBATION
[7] = Test System: AMES SALMONELLA TYPHIMURIUM, Strain/Indicator: TA98, Metabolic Activation: HAMSTER, LIVER, S-9, AROCLOR 1254 (30%), Method: PREINCUBATION
[8] = Test System: AMES SALMONELLA TYPHIMURIUM, Strain/Indicator: TA98, Metabolic Activation: NONE, Method: PREINCUBATION
[9] = Test System: AMES SALMONELLA TYPHIMURIUM, Strain/Indicator: TA98, Metabolic Activation: RAT, LIVER, S-9, AROCLOR 1254 (10%), Method: PREINCUBATION
[10] = Test System: AMES SALMONELLA TYPHIMURIUM, Strain/Indicator: TA98, Metabolic Activation: RAT, LIVER, S-9, AROCLOR 1254 (30%), Method: PREINCUBATION
[11] = Test System: AMES SALMONELLA TYPHIMURIUM, Strain/Indicator: TA100, Metabolic Activation: HAMSTER, LIVER, S-9, AROCLOR 1254 (10%), Method: PREINCUBATION
[12] = Test System: AMES SALMONELLA TYPHIMURIUM, Strain/Indicator: TA100, Metabolic Activation: HAMSTER, LIVER, S-9, AROCLOR 1254 (30%), Method: PREINCUBATION
[13] = Test System: AMES SALMONELLA TYPHIMURIUM, Strain/Indicator: TA100, Metabolic Activation: NONE, Method: PREINCUBATION
[14] = Test System: AMES SALMONELLA TYPHIMURIUM, Strain/Indicator: TA100, Metabolic Activation: RAT, LIVER, S-9, AROCLOR 1254 (10%), Method: PREINCUBATION
[15] = Test System: AMES SALMONELLA TYPHIMURIUM, Strain/Indicator: TA100, Metabolic Activation: RAT, LIVER, S-9, AROCLOR 1254 (30%), Method: PREINCUBATION
[16] = Test System: AMES SALMONELLA TYPHIMURIUM, Strain/Indicator: TA1535, Metabolic Activation: HAMSTER, LIVER, S-9, AROCLOR 1254 (10%), Method: PREINCUBATION
[17] = Test System: AMES SALMONELLA TYPHIMURIUM, Strain/Indicator: TA1535, Metabolic Activation: HAMSTER, LIVER, S-9, AROCLOR 1254 (30%), Method: PREINCUBATION
[18] = Test System: AMES SALMONELLA TYPHIMURIUM, Strain/Indicator: TA1535, Metabolic Activation: NONE, Method: PREINCUBATION
[19] = Test System: AMES SALMONELLA TYPHIMURIUM, Strain/Indicator: TA1535, Metabolic Activation: RAT, LIVER, S-9, AROCLOR 1254 (10%), Method: PREINCUBATION
[20] = Test System: AMES SALMONELLA TYPHIMURIUM, Strain/Indicator: TA1535, Metabolic Activation: RAT, LIVER, S-9, AROCLOR 1254 (30%), Method: PREINCUBATION

Compound: FC(F)(F)c1ccccc1Cl
- mutagenic call [1]: inactive; negative
- mutagenic call [2]: inactive; negative
- mutagenic call [3]: inactive; negative
- mutagenic call [4]: inactive; negative
- mutagenic call [5]: inactive; negative
- mutagenic call [6]: inactive; negative
- mutagenic call [7]: inactive; negative
- mutagenic call [8]: inactive; negative
- mutagenic call (Test System: AMES SALMONELLA TYPHIMURIUM, Strain/Indicator: TA98, Metabolic Activation: NONE, Method: STANDARD PLATE): inactive; negative
- mutagenic call [9]: inactive; negative
- mutagenic call [10]: inactive; negative
- mutagenic call (Test System: AMES SALMONELLA TYPHIMURIUM, Strain/Indicator: TA98, Metabolic Activation: RAT, LIVER, S-9, AROCLOR 1254, Method: STANDARD PLATE): inactive; negative
- mutagenic call [11]: inactive; negative
- mutagenic call [12]: inactive; negative
- mutagenic call [13]: inactive; negative
- mutagenic call (Test System: AMES SALMONELLA TYPHIMURIUM, Strain/Indicator: TA100, Metabolic Activation: NONE, Method: STANDARD PLATE): inactive; negative
- mutagenic call [14]: inactive; negative
- mutagenic call [15]: inactive; negative
- mutagenic call (Test System: AMES SALMONELLA TYPHIMURIUM, Strain/Indicator: TA100, Metabolic Activation: RAT, LIVER, S-9, AROCLOR 1254, Method: STANDARD PLATE): inactive; negative
- mutagenic call [16]: inactive; negative
- mutagenic call [17]: inactive; negative
- mutagenic call [18]: inactive; negative
- mutagenic call (Test System: AMES SALMONELLA TYPHIMURIUM, Strain/Indicator: TA1535, Metabolic Activation: NONE, Method: STANDARD PLATE): inactive; negative
- mutagenic call [19]: inactive; negative
- mutagenic call [20]: inactive; negative
- mutagenic call (Test System: AMES SALMONELLA TYPHIMURIUM, Strain/Indicator: TA1535, Metabolic Activation: RAT, LIVER, S-9, AROCLOR 1254, Method: STANDARD PLATE): inactive; negative
- mutagenic call (Test System: AMES SALMONELLA TYPHIMURIUM, Strain/Indicator: TA1537, Metabolic Activation: HAMSTER, LIVER, S-9, AROCLOR 1254 (30%), Method: PREINCUBATION): inactive; negative
- mutagenic call (Test System: AMES SALMONELLA TYPHIMURIUM, Strain/Indicator: TA1537, Metabolic Activation: NONE, Method: PREINCUBATION): inactive; negative
- mutagenic call (Test System: AMES SALMONELLA TYPHIMURIUM, Strain/Indicator: TA1537, Metabolic Activation: NONE, Method: STANDARD PLATE): inactive; negative
- mutagenic call (Test System: AMES SALMONELLA TYPHIMURIUM, Strain/Indicator: TA1537, Metabolic Activation: RAT, LIVER, S-9, AROCLOR 1254 (30%), Method: PREINCUBATION): inactive; negative
- mutagenic call (Test System: AMES SALMONELLA TYPHIMURIUM, Strain/Indicator: TA1537, Metabolic Activation: RAT, LIVER, S-9, AROCLOR 1254, Method: STANDARD PLATE): inactive; negative
- mutagenic call (Test System: AMES SALMONELLA TYPHIMURIUM, Strain/Indicator: TA1538, Metabolic Activation: NONE, Method: STANDARD PLATE): inactive; negative
- mutagenic call (Test System: AMES SALMONELLA TYPHIMURIUM, Strain/Indicator: TA1538, Metabolic Activation: RAT, LIVER, S-9, AROCLOR 1254, Method: STANDARD PLATE): inactive; negative

Compound: Nc1ccccc1C(=O)OC/C=C/c1ccccc1
- mutagenic call (End Point: IN VITRO CHROMOSOMAL ABERRATIONS, Test System: CHINESE HAMSTER LUNG FIBROBLAST CELLS (CHL/IU), Metabolic Activation: NONE): inactive; negative
- mutagenic call (End Point: IN VITRO CHROMOSOMAL ABERRATIONS, Test System: CHO CELLS, Metabolic Activation: NONE): inactive; negative
- mutagenic call (End Point: IN VITRO CHROMOSOMAL ABERRATIONS, Test System: CHO CELLS, Metabolic Activation: RAT, LIVER, S-9, AROCLOR 1254): inactive; negative
- mutagenic call [1]: inactive; negative
- mutagenic call [2]: inactive; negative
- mutagenic call [3]: inactive; negative
- mutagenic call [4]: inactive; negative
- mutagenic call [5]: inactive; negative
- mutagenic call [6]: inactive; negative
- mutagenic call [7]: inactive; negative
- mutagenic call [8]: inactive; negative
- mutagenic call [9]: inactive; negative
- mutagenic call [10]: inactive; negative
- mutagenic call [11]: inactive; negative
- mutagenic call [12]: inactive; negative
- mutagenic call [13]: inactive; negative
- mutagenic call [14]: inactive; negative
- mutagenic call [15]: inactive; negative
- mutagenic call [16]: inactive; negative
- mutagenic call [17]: inactive; negative
- mutagenic call [18]: inactive; negative
- mutagenic call [19]: inactive; negative
- mutagenic call [20]: inactive; negative
- mutagenic call (Test System: E. COLI, Strain/Indicator: WP2 UVRA, Metabolic Activation: HAMSTER, LIVER, S-9, AROCLOR 1254, Method: STANDARD PLATE): inactive; negative
- mutagenic call (Test System: E. COLI, Strain/Indicator: WP2 UVRA, Metabolic Activation: NONE, Method: STANDARD PLATE): inactive; negative
- mutagenic call (Test System: Mouse lymphoma, Strain/Indicator: L5178Y (tk+/tk-), Metabolic Activation: None, Method: Suspension/plate): inactive; negative
- mutagenic call (Test System: Mouse lymphoma, Strain/Indicator: L5178Y (tk+/tk-), Metabolic Activation: Rat, Liver, S-9, Aroclor 1254, Method: Suspension/plate): active; equivocal (previous evaluation positive)
- mutagenic call (Test System: UDS RAT HEPATOCYTES, Strain/Indicator: BROMODEOXYURIDINE INCORP, Metabolic Activation: NONE, Method: FLOW CYTOMETRIC ANALYSIS): inactive; negative
- mutagenic call (Test System: UDS RAT HEPATOCYTES, Strain/Indicator: THY INCORP, Metabolic Activation: NONE, Method: AUTORADIOGRAPHY): inactive; negative
